Source: patent publication US20250120971A1, “NOVEL DRUG TREATMENT OF COGNITIVE IMPAIRMENTS ASSOCIATED WITH SCHIZOPHRENIA” (FLORIDA ATLANTIC UNIVERSITY BOARD OF TRUSTEES, priority 2021, published 2025)
“Also recorded” adds a separate entry of the source.

Key:
[1] = test system: rat model of repeated stress; details: cited from earlier work
[2] = test system: KET mouse model of psychosis or schizophrenia-like behavior; experiment: Object recognition memory task after systemic (IP) SK channel activator; type: in vivo, mouse (male C57BL/6J); details: for discrimination ratio score, test session (Mdn): CyPPA 15.0 mg/kg IP 30 min pre-sample
Protocol: SK Drug Administration. To test the effect of the SK2 specific activator, CyPPA on long-term memory for objects, two KET groups and two SAL groups of male C57BL/6J mice were randomly assigned to receive either VEH or CyPPA (15.0 mg/kg) IP 30 min prior to the sample session of an object recognition memory task. Separate groups received CyPPA (7.5 mg/kg) IP or VEH 30 min prior to the sample session.
Arena Habituation. Mice were habituated to the arena prior to testing recognition memory. Thirty minutes prior to each arena habituation (AH) session, each mouse was restrained gently and momentarily, given a mock IP injection with a 26-gauge needle, and then placed into an empty polycarbonate cage. […] Afterwards, each mouse was returned to the polycarbonate cage and then returned to its home cage. Activity was recorded and automatically scored using Noldus Ethovision XT (version 7.0). Distance traveled was defined as the sum of recorded movement of the center point of the mouse in cm over the duration of the trial. Movement data from the AH sessions was used to match future treatment groups.
Sample Session. To examine the efficacy of activating SK channels on hippocampal long-term memory in the KET model of schizophrenia or psychosis-like cognitive deficits, an SK channel activator or vehicle (VEH, i.e., placebo) was administered to cohorts of saline (SAL) control mice or ketamine (KET)-exposed mice prior to the sample session of an object recognition task. Ten days after the final SAL or KET injection, mice received an IP injection of a SK channel activator or VEH, and then were placed individually in polycarbonate holding cages. Following a delay, the mouse was placed individually into the familiar arena for 10 min. Mice were permitted to freely explore two identical novel objects that were placed in opposite corners within the arena. […] The arena and objects were wiped down with 70% ethanol before each session to eliminate any odor cues that were present. Object exploration was defined as time (in s) that the mouse spent with its head oriented toward and within 2-3 cm of the object. The sample session ended after 10 min; at which time the mouse was returned to its home cage. Sample session behavior was video tracked via Ethovision XT and recordings were analyzed off-line to determine object exploration times for each mouse.
Test Session. Twenty-four hours following the sample session, mice were placed in a polycarbonate cage and then given a 10-min test session in the same arena as the sample session. Each mouse received a needle prick to simulate an IP injection before being placed in the polycarbonate holding cage for 30 min. For the test session, one of the previously encountered objects was replaced with a novel one (e.g., A, B, or C), as described above. To avoid place preference confounding behavioral responses, the objects were randomly replaced for the test session. The arena and objects were wiped down with 70% ethanol before each session to eliminate any odor cues that might affect behavioral responses during the test session.
Statistical Analysis. Object exploration was determined for each mouse based on the manual scoring of behavior from the recorded video files of the sample and test sessions. Scoring was done by experimenters who were blind to the treatment and group of the mice. Object memory was inferred from discrimination ratio scores, calculated for each mouse as the difference in time spent exploring the novel object minus the time spent exploring the familiar object, divided by the total time spent exploring both test objects (TNovel object−TFamiliar object/TNovel object+TFamiliar object). Discrimination ratio scores range from 1 to −1, with ratios greater than zero indicating preferential exploration of the novel object, and ratios less than zero indicating preferential exploration of the familiar object.

[3] = test system: KET mouse model of psychosis; experiment: Trace fear conditioning and tone test; type: in vivo; details: for discrimination ratio of % freezing (trace vs CS intervals) (Mdn): CyPPA 15.0 mg/kg IP 30 min before trace fear conditioning
Protocol: Systemic Administration of the SK2 Activator. Two groups of KET mice and two groups of SAL mice were randomly assigned to receive either VEH or CyPPA (15.0 mg/kg) IP 30 min prior to a trace fear conditioning session.
Trace fear conditioning was performed using a MED Associates Near-Infrared Video Fear Conditioning System (Georgia, VT) composed of four identical rectangular conditioning chambers (30.5 cm by 24.1 cm by 21 cm) constructed of brushed aluminum side walls and clear Plexiglas front, back and top walls. Each chamber was illuminated by an overhead white house light and an infrared light. An audio speaker attached to the right-side wall of each chamber delivered the tone stimuli. The chamber floor was constructed of parallel stainless-steel rods (36 rods, 3.2 mm dia, 7.9 mm apart) designed for mice, and connected to a scrambled shock generator. Each conditioning chamber was housed inside a larger sound-attenuating cabinet with a ventilation fan in the right-side wall used to provide background noise. A near-infrared FireWire video camera, mounted on the left front door of each noise-attenuating cabinet, was used to acquire mouse behavior. Before each trial, the chamber floors were cleaned thoroughly with a 70% ethanol solution, then with 1% LiquiNox (White Plains, New York) to reduce olfactory cues.
Freezing responses were recorded and automatically scored during the conditioning session to assess the strength of fear memory. The automatic software program operationally defined freezing as the duration of time, greater than 0.6 s, during which fewer than 20 pixels of each video frame were detected to have changed. […] All final freezing responses were hand scored to ensure accuracy.
Trace Fear Conditioning Session. Mice received a systemic injection of CyPPA or VEH and then were placed individually into empty holding cages. Thirty min later, mice were placed individually into a distinct conditioning chamber with an odor cue. […] (FIG. 4A). Mice were removed from the chamber 60 s. after the presentation of the 8th US.
Trace Fear Memory Tone Test. To assess retention of trace fear memory after a 24-hour delay, mice received a mock IP injection before being placed in the polycarbonate cage. After 30 min, mice were placed into modified conditioning chambers and after a 60 s. delay, were presented with the identical tone CS as in the conditioning session. […] Mice were removed 30 s. after termination of the last CS. The context of chamber was modified before the tone test by installing an inverted V-shaped Plexiglas insert to change the geometry of the side walls and ceiling, a floor shield, 1% acetic acid, and lighting filter.
Statistical Analysis. […] To examine whether KET differentially influenced the perception of the aversive foot shock stimulus, an activity burst ratio was computed for each mouse by dividing the motion score for the first shock interval, 1 s, +1 s. post shock by the motion score for a 2-s interval from the initial 60 s. of the conditioning session (Mean shock/mean no shock). A two-factor (group, treatment) ANOVA, or one-way if not normally distributed, was conducted to analyze treatment differences in the mean activity burst.
Trace fear conditioning involves the imposition of a temporal gap between the termination of the CS and the onset of the aversive US stimulus. […] The strength and accuracy of this temporally guided fear memory can then be assessed during a test session, often presented 24 hours after trace conditioning. […]

[4] = test system: KET mouse model of psychosis; experiment: Object recognition memory task after intrahippocampal (CA1) microinfusion; type: in vivo; details: KET mice; CyPPA 1 μg/μl bilateral intra-CA1 pre-sample; test 24 h later

| Structure (SMILES) | fear memory impairments [1] | discrimination ratio, test session (Mdn) ([2]; KET mice, CyPPA 7.5 mg/kg IP 30 min pre-sample, test 24 h later) | object recognition memory vs KET mice given VEH ([2]; KET mice, CyPPA 7.5 mg/kg IP pre-sample, test 24 h later) | discrimination ratio score, test session (Mdn) ([2]; KET mice, test 24 h later) | object recognition memory vs KET mice given VEH ([2]; KET mice, CyPPA 15.0 mg/kg IP pre-sample, test 24 h later) | discrimination ratio score, test session (Mdn) ([2]; SAL control mice, test 24 h later) | object memory vs SAL mice given VEH ([2]; SAL control mice, CyPPA 15.0 mg/kg IP pre-sample) | performance during the tone test (retrieval) as stated in the Conclusions ([3]; KET mice given CyPPA vs KET mice given VEH) | discrimination ratio of % freezing (trace vs CS intervals) (Mdn) ([3]; KET mice) | temporal memory / attention in trace fear conditioning vs KET mice given VEH ([3]; KET mice, CyPPA 15.0 mg/kg IP 30 min pre-conditioning) | discrimination ratio of % freezing (trace vs CS intervals) (Mdn) ([3]; SAL mice) | conditioned freezing response vs SAL mice given VEH ([3]; SAL mice, CyPPA 15.0 mg/kg IP pre-conditioning) | discrimination ratio score, test session (M) [4] | discrimination ratio, test session (Mdn) [4] | object recognition memory vs KET/VEH [4] |
| --- | --- | --- | --- | --- | --- | --- | --- | --- | --- | --- | --- | --- | --- | --- | --- |
| CCn1c(=O)[nH]c2ccccc21 [1-EBIO] | alleviated fear memory impairments |  |  |  |  |  |  |  |  |  |  |  |  |  |  |
| Cc1cc(NC2CCCCC2)nc(-n2nc(C)cc2C)n1 [CyPPA] | alleviated fear memory impairments | 0.079 | no rescue of KET-induced impaired object memory | 0.191 | rescued object recognition memory; also recorded: performed significantly better than VEH-treated KET mice; also recorded: significantly better object recognition memory performance | 0.381 | impaired object memory; also recorded: impaired the encoding and or consolidation of object memory | performed equivalently to KET mice given VEH | 0.21 | rescue of the attention or learning deficit; also recorded: significantly better than that of VEH-treated KET mice; also recorded: rescued temporal memory and attention | 0.13 | impaired acquisition of the conditioned freezing response; also recorded: exhibited impaired freezing compared to SAL mice given VEH | 0.354 | 0.398 | improved object recognition memory; also recorded: partial, albeit significant, rescue of object recognition memory |
